In patent publication US20110027341A1, “DEVICE FOR IN SITU PRODUCTION AND TOPICAL ADMINISTRATION OF ALLICIN” (YEDA RESEARCH AND DEVELOPMENT CO., LTD. at the Weizmann …, priority 2008, published 2011):

What was measured:
[1] = kept at cold temperatures, pH around 6; cited from earlier work
[2] = system: Trichomonas vaginalis; test: In vitro growth of Trichomonas vaginalis trophozoites with pure allicin (hemacytometer count); type: cell-based; settings: 24 hours, 37° C.
Description: The effect of allicin on the different microorganisms was tested in (i) sensitivity tests to different concentrations of pure allicin in liquid culture tubes containing full nutrient medium; […] The effects of allicin on Trichomonas vaginalis was tested in liquid cultures, and the viability of the trophozoites after exposure to different concentrations of allicin was determined by the methylene blue vital dye exclusion as previously described (Kiernan, 1974). […] Aliquotes were taken following incubation of 24 hours and the number of trophozoites was counted using a hemacytometer.

[3] = target: various microorganisms; test: Sensitivity tests of microorganisms to pure allicin and to allicin from dry alliin/alliinase mixtures (liquid culture, disk filters on agar, tampons); type: cell-based; settings: for LD50: range over the various microorganisms tested
Description: In this experiment, the effect of allicin released upon wetting of the medicated tampons on various microorganisms, kindly provided by Dr. N. Keller from the clinical microbiology laboratory of the Sheba Medical Center (Tel HaShomer, Israel), was tested. The list of microorganisms included various types of yeasts, in particular, Saccharomyces cerevisiae, Candida albicans and Candida Glabrata; and several types of bacteria, in particular, group B Streptococci, methicillin-resistant Staphylococcus aureus (MRSA) and vancomycin-intermediate Staphylococcus aureus (VISA). In addition, two strains of Trichomonas vaginalis, one adherent to the plastic of the tube and the other non-adherent, were tested.
In addition, various mixtures of dry alliin and dry alliinase were placed inside the cleft of vaginal tampons to yield different amounts of allicin in tubes containing liquid medium with bacteria or yeasts, wherein following overnight incubation, aliquots were taken from the tubes and plated on nutrient agar plates, and the number of colonies developed was determined in comparison to untreated controls. The effects of allicin on Trichomonas vaginalis was tested in liquid cultures, and the viability of the trophozoites after exposure to different concentrations of allicin was determined by the methylene blue vital dye exclusion as previously described (Kiernan, 1974).
Dry glass fiber filters on which a solution containing 5, 20 or 30 μg of pure allicin was dripped just before placing on the seeded agar served as standards, and dry glass fiber filters that were placed on the seeded agar were used as controls.

[4] = system: nail fungus (onychomycosis); test: Repeated topical application of pure allicin on infected toenails of volunteers; type: in vivo
Description: In this preliminary study, the effect of repeated topical application of pure allicin on an infected nail was examined. The study was performed on a group of 10 volunteers infected with nail fungus (onychomycosis), wherein only toenails showing visible signs of being infected with a nail fungus were chosen for the topical treatment. […] The allicin solution was kept at 4° C. in citrate buffer pH 6.0 containing 1 M urea in a dark flask. A round cotton pad was cut in the approximate dimensions and size of the infected toenail (1.3 cm diameter×0.3 cm thick). 0.5 ml of the allicin solution was slowly delivered with a pipette to the surface of the cotton pad and the wet cotton pad was placed on the nail, taking precaution so as not to touch the skin surrounding the nail. The toe with the cotton pad was then covered overnight with a strip made of nylon to secure the pad on the nail and to prevent the spread of the volatile smelly odor of allicin. This treatment was repeated every night for 14 days. […] The treatment was then repeated once a week until all the infected regions of the old nail were cut off.

[5] = system: Trichoderma hyphae; test: Antifungal activity of the two-filter delivery system on agar plates (halo of inhibition); type: cell-based; settings: for inhibition of fungal growth (halo around filter): filters placed 6 h after seeding 5×10^6 spores, 28° C., overnight incubation, FIG. 3A; for inhibition of fungal growth (halo around filter), mature growth: filters placed after 24 hours incubation, further 16 h, FIG. 3B
Description: In this experiment, the effect of allicin released upon wetting of the two-filter delivery system on spores of Trichoderma hyphae was tested. In particular, four Petri dish plates containing nutrient agar for fungal growth were seeded with 5×10^6 spores of a test soil fungi (Trichoderma hyphae) and incubated at 28° C. […] Additional two plates in each of which a single glass fiber filter containing either the substrate or the enzyme were placed were used as controls and treated the same way. A fourth plate containing only the fungus served as the positive control, and a fifth plate without any fungus was used as the negative control.
A similar experiment was carried out with identical filters on Petri dish plates that contained a more mature Trichoderma hyphae growth (after 24 hours incubation from seeding of the same number of spores). The filters were placed as described above and the plates were incubated for another 16 h.

[6] = Storage stability of dry alliin/alliinase components and filters (potential to produce allicin); type: physicochemical; settings: dry form at room temperature

Compound	degradation rate [1]	Trophozoites (×10^4) ([2]; allicin 5 μg/ml)	Trophozoites (×10^4) ([2]; allicin 10 μg/ml)	Trophozoites (×10^4) ([2]; allicin 15 μg/ml)	Trophozoites (×10^4) ([2]; allicin 25 μg/ml)	killing of microorganisms ([3]; all experiments, irrespective of type of microorganism, FIGS. 4-5 and Table 1)	LD50 [3]	LD50 ([3]; as μM allicin)	outcome of infected toenails after treatment ([4]; 0.5 ml of 0.5 mg/ml allicin solution (citrate buffer pH 6.0, 1 M urea) on cotton pad overnight, every night 14 days, then once a week, 10 volunteers)	tolerability: treatment not completed because of garlic smell ([4]; 10 volunteers)	color of the fungus in the nail ([4]; by the third day of the treatment)	time toenails remained fungus free ([4]; in some cases)	color of the emerging new nail ([4]; within two weeks)	inhibition of fungal growth (halo around filter) [5]	inhibition of fungal growth (halo around filter), mature growth [5]	preservation of potential for producing allicin [6]
C=CCS[S+]([O-])CC=C (stereo not drawn) [allicin, diallyl thiosulfinate]	8 %/month	48 ×10^4	45 ×10^4	8 ×10^4	3 ×10^4	effective killing	8 to 15 µg/mL	20 to 50 µM	eight individuals had a remarkably healthy regeneration of their toenails	Two individuals did not complete the treatment	turned from dark green to yellowish white	over 2 years	resumed its natural color	–	–	–
alliin	–	–	–	–	–	–	–	–	–	–	–	–	–	No such halos were seen	such halo is not visible	–
alliinase	–	–	–	–	–	–	–	–	–	–	–	–	–	No such halos were seen	such halo is not visible	preserved their potential for producing allicin for several months
